Laboratory results as given in ChEMBL document CHEMBL3734723, “Synthesis and anticancer activity of 6-heteroarylcoumarins” (2015).

What was measured:
Assay type in all cases: functional
[1] = Cytotoxicity against human UO31 cells assessed as cell growth at 10 uM incubated for 48 hrs by sulforhodamine B assay; settings: UO-31, 48 h, read-out: Activity
NCI-H522 = test: Cytotoxicity against human NCI-H522 cells assessed as cell growth at 10 uM incubated for 48 hrs by sulforhodamine B assay; settings: NCI-H522, 48 h, read-out: Activity
[2] = Cytotoxicity against human OVCAR8 cells assessed as cell growth at 10 uM incubated for 48 hrs by sulforhodamine B assay; settings: OVCAR-8, 48 h, read-out: Activity
[3] = Cytotoxicity against human SF295 cells assessed as cell growth at 10 uM incubated for 48 hrs by sulforhodamine B assay; settings: SF-295, 48 h, read-out: Activity
[4] = Cytotoxicity against human RPMI8226 cells assessed as cell growth at 10 uM incubated for 48 hrs by sulforhodamine B assay; settings: RPMI-8226, 48 h, read-out: Activity
SK-MEL-5 = test: Cytotoxicity against human SK-MEL-5 cells assessed as cell growth at 10 uM incubated for 48 hrs by sulforhodamine B assay; settings: SK-MEL-5, 48 h, read-out: Activity
[5] = Cytotoxicity against human UACC62 cells assessed as cell growth at 10 uM incubated for 48 hrs by sulforhodamine B assay; settings: UACC-62, 48 h, read-out: Activity
T47D = test: Cytotoxicity against human T47D cells assessed as cell growth at 10 uM incubated for 48 hrs by sulforhodamine B assay; settings: read-out: Activity
[6] = Cytotoxicity against human PC3 cells assessed as cell growth at 10 uM incubated for 48 hrs by sulforhodamine B assay; settings: PC-3, 48 h, read-out: Activity
CCRF-CEM = test: Cytotoxicity against human CCRF-CEM cells assessed as cell growth at 10 uM incubated for 48 hrs by sulforhodamine B assay; settings: read-out: Activity
SR = test: Cytotoxicity against human SR cells assessed as cell growth at 10 uM incubated for 48 hrs by sulforhodamine B assay; settings: read-out: Activity
[7] = Cytotoxicity against human HOP92 cells assessed as cell growth at 10 uM incubated for 48 hrs by sulforhodamine B assay; settings: HOP-92, 48 h, read-out: Activity
[8] = Cytotoxicity against human HL-60(TB) cells assessed as cell growth at 10 uM incubated for 48 hrs by sulforhodamine B assay; settings: HL-60, 48 h, read-out: Activity
MDA-MB-468 = test: Cytotoxicity against human MDA-MB-468 cells assessed as cell growth at 10 uM incubated for 48 hrs by sulforhodamine B assay; settings: MDA-MB-468, 48 h, read-out: Activity
K562 = test: Cytotoxicity against human K562 cells assessed as cell growth at 10 uM incubated for 48 hrs by sulforhodamine B assay; settings: K562, 48 h, read-out: Activity
[9] = Cytotoxicity against human […] cells assessed as cell growth at 10 uM incubated for 48 hrs by sulforhodamine B assay; settings: read-out: Activity
[10] = Cytotoxicity against human MOLT4 cells assessed as cell growth at 10 uM incubated for 48 hrs by sulforhodamine B assay; settings: MOLT-4, 48 h, read-out: Activity
[11] = Cytotoxicity against human HCC2998 cells assessed as cell growth at 10 uM incubated for 48 hrs by sulforhodamine B assay; settings: HCC 2998, 48 h, read-out: Activity
KM12 = test: Cytotoxicity against human KM12 cells assessed as cell growth at 10 uM incubated for 48 hrs by sulforhodamine B assay; settings: KM12, 48 h, read-out: Activity
[12] = Cytotoxicity against human HCT116 cells assessed as cell growth at 10 uM incubated for 48 hrs by sulforhodamine B assay; settings: HCT-116, 48 h, read-out: Activity
ACHN = test: Cytotoxicity against human ACHN cells assessed as cell growth at 10 uM incubated for 48 hrs by sulforhodamine B assay; settings: read-out: Activity
[13] = Cytotoxicity against human OVCAR4 cells assessed as cell growth at 10 uM incubated for 48 hrs by sulforhodamine B assay; settings: OVCAR-4, 48 h, read-out: Activity
MCF7 = test: Cytotoxicity against human MCF7 cells assessed as cell growth at 10 uM incubated for 48 hrs by sulforhodamine B assay; settings: MCF7, 48 h, read-out: Activity
786-0 = test: Cytotoxicity against human 786-0 cells assessed as cell growth at 10 uM incubated for 48 hrs by sulforhodamine B assay; settings: 786-0, 48 h, read-out: Activity
MDA-MB-435 = test: Cytotoxicity against human MDA-MB-435 cells assessed as cell growth at 10 uM incubated for 48 hrs by sulforhodamine B assay; settings: MDA-MB-435, 48 h, read-out: Activity
[14] = Cytotoxicity against human NCI-ADR-RES cells assessed as cell growth at 10 uM incubated for 48 hrs by sulforhodamine B assay; settings: read-out: Activity
NCI-H460 = test: Cytotoxicity against human NCI-H460 cells assessed as cell growth at 10 uM incubated for 48 hrs by sulforhodamine B assay; settings: NCI-H460, 48 h, read-out: Activity
[15] = Cytotoxicity against human LOXIMVI cells assessed as cell growth at 10 uM incubated for 48 hrs by sulforhodamine B assay; settings: LOX IMVI, read-out: Activity
EKVX = test: Cytotoxicity against human EKVX cells assessed as cell growth at 10 uM incubated for 48 hrs by sulforhodamine B assay; settings: read-out: Activity
A549 = test: Cytotoxicity against human A549 cells assessed as cell growth at 10 uM incubated for 48 hrs by sulforhodamine B assay; settings: A549, 48 h, read-out: Activity
[16] = Cytotoxicity against human HCT15 cells assessed as cell growth at 10 uM incubated for 48 hrs by sulforhodamine B assay; settings: HCT-15, 48 h, read-out: Activity
[17] = Cytotoxicity against human OVCAR3 cells assessed as cell growth at 10 uM incubated for 48 hrs by sulforhodamine B assay; settings: OVCAR-3, 48 h, read-out: Activity
NCI-H23 = test: Cytotoxicity against human NCI-H23 cells assessed as cell growth at 10 uM incubated for 48 hrs by sulforhodamine B assay; settings: NCI-H23, 48 h, read-out: Activity

Cc1c(O)c(-c2ccnc(S)n2)cc2c3c(c(=O)oc12)CCCC3
growth at 10 µM [1]: 60.8%
growth at 10 µM (NCI-H522): 68.8%
growth at 10 µM [2]: 64.5%

CCCc1cc(=O)oc2c(C)c(O)c(-c3ccc4c(=O)n(-c5ccccc5)nc-4[nH]3)cc12
growth at 10 µM [3]: 69.1%
growth at 10 µM [4]: 65.8%
growth at 10 µM (SK-MEL-5): 67.1%
growth at 10 µM [5]: 60.6%

Cc1c(O)c(-c2cc3ccccc3[nH]2)cc2c3c(c(=O)oc12)CCC3
growth at 10 µM (NCI-H522): 61.6%
growth at 10 µM [4]: 51.8%
growth at 10 µM (T47D): 69.8%
growth at 10 µM [6]: 67%
growth at 10 µM [5]: 59.1%

CCCCc1cc(=O)oc2c(C)c(O)c(-c3ccnc(NC#N)n3)cc12
growth at 10 µM (CCRF-CEM): -58.3%

CCCCc1cc(=O)oc2c(C)c(O)c(-c3ccnc4nnnn34)cc12
growth at 10 µM [1]: 89.4%

Cc1c(O)c(-c2ccnc(N)n2)cc2c3c(c(=O)oc12)CCC3
growth at 10 µM [4]: 55.6%
growth at 10 µM (SR): 4.79%
growth at 10 µM [7]: -5.18%
growth at 10 µM (CCRF-CEM): -73.3%
growth at 10 µM [8]: -34.4%

Cc1cc(=O)oc2c(C)c(O)c(-c3cc4ccccc4[nH]3)cc12
growth at 10 µM (MDA-MB-468): 64.3%
growth at 10 µM [1]: 51.8%
growth at 10 µM (NCI-H522): 58.2%
growth at 10 µM [4]: 43.8%
growth at 10 µM (SR): 65.2%
growth at 10 µM [6]: 66.5%
growth at 10 µM (K562): 59.3%
growth at 10 µM (SK-MEL-5): 48.5%
growth at 10 µM [5]: 48.8%

CCCc1cc(=O)oc2c(C)c(O)c(-c3ccc(C#N)c(=O)[nH]3)cc12
growth at 10 µM [9]: 90%

Cc1cc(=O)oc2c(C)c(O)c(-c3cc[nH]n3)cc12
growth at 10 µM [4]: 64.3%
growth at 10 µM (CCRF-CEM): -68.5%
growth at 10 µM [8]: -10.9%

Cc1cc(=O)oc2c(C)c(O)c(-c3ccnc4nc5ccccc5n34)cc12
growth at 10 µM (CCRF-CEM): -81.9%

Cc1c(O)c(-c2cc[nH]n2)cc2c3c(c(=O)oc12)CCC3
growth at 10 µM (SR): 16.5%
growth at 10 µM [10]: -36%
growth at 10 µM [7]: 65.7%
growth at 10 µM (CCRF-CEM): -69.3%
growth at 10 µM [8]: -20.4%

Cc1c(O)c(-c2cc3ccccc3[nH]2)cc2c3c(c(=O)oc12)CCCC3
growth at 10 µM [11]: 53.7%
growth at 10 µM [3]: 65.7%
growth at 10 µM (MDA-MB-468): 41.6%
growth at 10 µM (KM12): 64.8%
growth at 10 µM [1]: 44%
growth at 10 µM (NCI-H522): 39.6%
growth at 10 µM [12]: 51.7%
growth at 10 µM (ACHN): 66.9%
growth at 10 µM [13]: 61.6%
growth at 10 µM (MCF7): 67.3%
growth at 10 µM [4]: 38.7%
growth at 10 µM [9]: 68.8%
growth at 10 µM (SR): 60.2%
growth at 10 µM [6]: 52.8%
growth at 10 µM (786-0): 69.9%
growth at 10 µM (MDA-MB-435): 65.3%
growth at 10 µM [14]: 49.2%
growth at 10 µM (K562): 44.3%
growth at 10 µM (NCI-H460): 47.8%
growth at 10 µM [15]: 68.2%
growth at 10 µM [10]: 62.2%
growth at 10 µM [7]: 36.7%
growth at 10 µM (EKVX): 60.7%
growth at 10 µM (SK-MEL-5): 52.2%
growth at 10 µM (A549): 58.5%
growth at 10 µM [16]: 67.3%
growth at 10 µM [17]: 64.6%
growth at 10 µM [5]: 48.2%
growth at 10 µM (NCI-H23): 31.5%
